Measurements reported in patent publication US7517874B2 (priority 2007, dated 2009).
pEC50: −log10 of the molar value. Like-named read-outs stand apart in the source and are kept apart here.

Key:
[1] = biological target: human CB1 receptor (hCB1) (Homo sapiens, UniProt P21554); test: cell-based; format: cell-based; settings: for EC50: groups >100 nM-10 μM and >10 μM, cAMP, CHO-K1 hCB1, read-out: EC50 HCB1
How it was run: (§1)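 Agonism or inverse agonism was assessed as change in intracellular cAMP in CHO-K1 cells expressing human CB1 or rat CB2 (genomic DNA, pcDNA3.1).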

rat CB2 receptor (rCB2) = biological target: T1, rat CB2 receptor (rCB2) (Rattus norvegicus, UniProt Q9QZN9); test: cell-based; format: cell-based; settings: for +/− RCB2: agonist or inverse agonist at rCB2; for EC50: groups >100 nM-10 μM and >10 μM, cAMP, CHO-K1 rCB2, read-out: EC50 RCB2
T1 sequence (Q9QZN9 1-360): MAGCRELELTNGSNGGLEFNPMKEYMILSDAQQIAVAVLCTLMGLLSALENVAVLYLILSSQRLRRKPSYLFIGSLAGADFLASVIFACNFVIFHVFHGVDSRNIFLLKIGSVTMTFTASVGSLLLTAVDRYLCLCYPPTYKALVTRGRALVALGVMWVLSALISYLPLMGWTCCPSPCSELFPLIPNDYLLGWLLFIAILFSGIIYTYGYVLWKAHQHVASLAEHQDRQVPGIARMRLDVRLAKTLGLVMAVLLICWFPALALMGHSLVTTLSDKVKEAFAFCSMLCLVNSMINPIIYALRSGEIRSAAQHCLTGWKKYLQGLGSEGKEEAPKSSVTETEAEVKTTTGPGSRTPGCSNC
How it was run: as §1

Chain of human CB1 receptor (hCB1) (P21554 whole entry): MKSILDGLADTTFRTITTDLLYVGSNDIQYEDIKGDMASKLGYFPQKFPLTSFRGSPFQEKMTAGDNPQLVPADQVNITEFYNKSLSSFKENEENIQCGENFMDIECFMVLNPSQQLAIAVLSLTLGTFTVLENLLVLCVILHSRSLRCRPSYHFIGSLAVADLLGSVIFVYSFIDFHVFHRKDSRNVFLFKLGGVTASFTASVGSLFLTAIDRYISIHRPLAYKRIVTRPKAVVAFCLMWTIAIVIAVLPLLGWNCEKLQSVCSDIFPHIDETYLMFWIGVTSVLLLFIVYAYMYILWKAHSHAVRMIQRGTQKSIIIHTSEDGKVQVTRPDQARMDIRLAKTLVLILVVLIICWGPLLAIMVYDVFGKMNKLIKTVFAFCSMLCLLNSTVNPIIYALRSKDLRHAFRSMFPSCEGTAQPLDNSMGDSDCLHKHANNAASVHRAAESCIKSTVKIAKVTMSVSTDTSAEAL

Structure (SMILES) | pEC50 [1] | +/− RCB2 (rat CB2 receptor (rCB2)) | pEC50 (rat CB2 receptor (rCB2)) | EC50 [1] [nM] | EC50 (rat CB2 receptor (rCB2)) [nM]
CCC(=O)N1CCn2c(-c3ccccc3)nc(C(=O)N[C@H](C(=O)NC)C(C)(C)C)c2C1 [Compound 189, (S)-N-(3,3-dimethyl-1-(methylamino)-1-oxobutan-2-yl)-3-phenyl-7-propionyl-5,6,7,8-tetrahydroimidazo[1,5-a]pyrazine-1-carboxamide] | < 5.00 | + |  |  | 
CNC(=O)[C@@H](NC(=O)c1nc(-c2ccccc2)n2c1CN(C(=O)C(C)(C)C)CC2)C(C)(C)C [Compound 190, (S)-N-(3,3-dimethyl-1-(methylamino)-1-oxobutan-2-yl)-3-phenyl-7-pivaloyl-5,6,7,8-tetrahydroimidazo[1,5-a]pyrazine-1-carboxamide] | < 5.00 | − |  |  | 
CNC(=O)[C@@H](NC(=O)c1nc(-c2ccccc2)n2c1CN(C(=O)C(C)C)CC2)C(C)(C)C [Compound 191, (S)-N-(3,3-dimethyl-1-(methylamino)-1-oxobutan-2-yl)-7-isobutyryl-3-phenyl-5,6,7,8-tetrahydroimidazo[1,5-a]pyrazine-1-carboxamide] | < 5.00 | − |  |  | 
CNC(=O)[C@@H](NC(=O)c1nc(-c2ccccc2)n2c1CN(C(=O)NC(C)(C)C)CC2)C(C)(C)C [Compound 192, (S)-N7-tert-butyl-N1-(3,3-dimethyl-1-(methylamino)-1-oxobutan-2-yl)-3-phenyl-5,6-dihydroimidazo[1,5-a]pyrazine-1,7(8H)-dicarboxamide] | < 5.00 | − |  |  | 
CCCNC(=O)N1CCn2c(-c3ccccc3)nc(C(=O)N[C@H](C(=O)NC)C(C)(C)C)c2C1 [Compound 193, (S)-N1-(3,3-dimethyl-1-(methylamino)-1-oxobutan-2-yl)-3-phenyl-N7-propyl-5,6-dihydroimidazo[1,5-a]pyrazine-1,7(8H)-dicarboxamide] | < 5.00 | − |  |  | 
CNC(=O)[C@@H](NC(=O)c1nc(-c2ccccc2)n2c1CN(C(=O)Nc1ccccc1)CC2)C(C)(C)C [Compound 194, (S)-N1-(3,3-dimethyl-1-(methylamino)-1-oxobutan-2-yl)-N7,3-diphenyl-5,6-dihydroimidazo[1,5-a]pyrazine1,7-(8H)-dicarboxamide] | < 5.00 |  | < 5.00 |  | 
CCCNC(=S)N1CCn2c(-c3ccccc3)nc(C(=O)N[C@H](C(=O)NC)C(C)(C)C)c2C1 [Compound 195, (S)-N-(3,3-dimethyl-1-(methylamino)-1-oxobutan-2-yl)-3-phenyl-7-(propylcarbamothioyl)-5,6,7,8-tetrahydroimidazo[1,5-a]pyrazine-1-carboxamide] | < 5.00 | − |  |  | 
CN(C)C(=O)[C@@H](NC(=O)c1nc(-c2ccccc2)n2c1CNCC2)C(C)(C)C [Compound 196, (S)-N-(1-(dimethylamino)-3,3-dimethyl-1-oxobutan-2-yl)-3-phenyl-5,6,7,8-tetrahydroimidazo[1,5-a]pyrazine-1-carboxamide] | < 5.00 | − |  |  | 
CNC(=O)[C@@H](NC(=O)c1nc(-c2ccccc2)n2c1CN(C1CC1)CC2)C(C)(C)C [Compound 197, (S)-7-cyclopropyl-N-(3,3-dimethyl-1-(methylamino)-1-oxobutan-2-yl)-3-phenyl-5,6,7,8-tetrahydroimidazo[1,5-a]pyrazine-1-carboxamide] | < 5.00 | − |  |  | 
Cc1noc([C@@H](NC(=O)c2nc(-c3ccccc3)n3c2CN(C2CC2)CC3)C(C)(C)C)n1 [Compound 198, (S)-7-cyclopropyl-N-(2,2-dimethyl-1-(3-methyl-1,2,4-oxadiazol-5-yl)propyl)-3-phenyl--5,6,7,8-tetrahydroimidazo[1,5-a]pyrazine-1-carboxamide] | < 5.00 | − |  |  | 
CNC(=O)[C@@H](NC(=O)c1nc(-c2ccccc2)n2c1CN(C1CC1)CCC2)C(C)(C)C [Compound 199, (S)-8-cyclopropyl-N-(3,3-dimethyl-1-(methylamino)-1-oxobutan-2-yl)-3-phenyl-6,7,8,9-tetrahydro-5H-imidazo[1,5-a][1,4]diazepine-1-carboxamide] | < 5.00 | + |  |  | 
Cc1nnc([C@@H](NC(=O)c2nc(-c3ccccc3)n3c2CNCC3)C(C)(C)C)o1 [Compound 200, (S)-N-(2,2-dimethyl-1-(5-methyl-1,3,4-oxadiazol-2-yl)propyl)-3-phenyl-5,6,7,8-tetrahydroimidazo[1,5-a]pyrazine-1-carboxamide] | < 5.00 | + |  |  | 
Cc1nnc([C@@H](NC(=O)c2nc(-c3ccccc3)n3c2CN(C)CC3)C(C)(C)C)o1 [Compound 201, (S)-N-(2,2-dimethyl-1-(5-methyl-1,3,4-oxadiazol-2-yl)propyl)-7-methyl-3-phenyl-5,6,7,8-tetrahydroimidazo[1,5-a]pyrazine-1-carboxamide] | < 5.00 | + |  |  | 
Cc1nnc([C@@H](NC(=O)c2nc(-c3ccccc3)n3c2CN(CC(C)C)CC3)C(C)(C)C)o1 [Compound 202, (S)-N-(2,2-dimethyl-1-(5-methyl-1,3,4-oxadiazol-2-yl)propyl)-7-isobutyl-3-phenyl-5,6,7,8-tetrahydroimidazo[1,5-a]pyrazine-1-carboxamide] | < 5.00 | − |  |  | 
CNC(=O)[C@@H](NC(=O)c1nc(C#Cc2ccccc2)n2c1CN(C)CC2)C(C)(C)C [Compound 204, (S)-N-(3,3-dimethyl-1-(methylamino)-1-oxobutan-2-yl)-7-methyl-3-(phenylethynyl)-5,6,7,8-tetrahydroimidazo[1,5-a]pyrazine-1-carboxamide] | < 5.00 |  | < 5.00 |  | 
CNC(=O)[C@@H](NC(=O)c1nc(C#Cc2cccnc2)n2c1CN(C)CC2)C(C)(C)C [Compound 205, (S)-N-(3,3-dimethyl-1-(methylamino)-1-oxobutan-2-yl)-7-methyl-3-(pyridin-3-ylethynyl)-5,6,7,8-tetrahydroimidazo[1,5-a]pyrazine-1-carboxamide] | < 5.00 |  | < 5.00 |  | 
CNC(=O)[C@@H](NC(=O)c1nc(-c2ccccc2)n2c1CN(C)CC2)C(C)C [Compound 206, (S)-7-methyl-N-(3-methyl-1-(methylamino)-1-oxobutan-2-yl)-3-phenyl-5,6,7,8-tetrahydroimidazo[1,5-a]pyrazine-1-carboxamide] | < 5.00 | + |  |  | 
CNC(=O)[C@@H](NC(=O)c1nc(-c2ccccc2)n2c1CN(C)CC2)c1ccccc1 [Compound 207, (S)-7-methyl-N-(2-(methylamino)-2-oxo-1-phenylethyl)-3-phenyl-5,6,7,8-tetrahydroimidazo[1,5-a]pyrazine-1-carboxamide] | < 5.00 | + |  |  | 
CN1CCn2c(-c3ccc(Cl)cc3F)nc(C(=O)Nc3ccc(S(N)(=O)=O)cc3)c2C1 [Compound 208, 3-(4-chloro-2-fluorophenyl)-7-methyl-N-(4-sulfamoylphenyl)-5,6,7,8-tetrahydroimidazo[1,5-a]pyrazine-1-carboxamide] | < 5.00 | − |  |  | 
CN1CCn2c(-c3ccc(Cl)cc3F)nc(C(=O)NC3CCN(C(=O)OC(C)(C)C)CC3)c2C1 [Compound 209, tert-butyl 4-(3-(4-chloro-2-fluorophenyl)-7-methyl-5,6,7,8-tetrahydroimidazo[1,5-a]pyrazine-1-carboxamido)piperidine-1-carboxylate] | < 5.00 |  | < 5.00 |  | 
CN1CCn2c(-c3ccc(Cl)cc3F)nc(C(=O)N3CCN(C(=O)c4ccccc4)CC3)c2C1 [Compound 210, (4-benzoylpiperazin-1-yl)(3-(4-chloro-2-fluorophenyl)-7-methyl-5,6,7,8-tetrahydroimidazo[1,5-a]pyrazin-1-yl)methanone] |  |  |  | > 10000 | > 10000
CN1CCn2c(-c3ccc(Cl)cc3F)nc(C(=O)N3CCN(c4ncccn4)CC3)c2C1 [Compound 211, (3-(4-chloro-2-fluorophenyl)-7-methyl-5,6,7,8-tetrahydroimidazo[1,5-a]pyrazin-1-yl)(4-(pyrimidin-2-yl)piperazin-1-yl)methanone] |  |  |  | > 10000 | > 10000
CN1CCn2c(-c3ccc(Cl)cc3F)nc(C(=O)N3CCC(n4c(=O)[nH]c5cc(Cl)ccc54)CC3)c2C1 [Compound 212, 5-chloro-1-(1-(3-(4-chloro-2-fluorophenyl)-7-methyl-5,6,7,8-tetrahydroimidazo[1,5-a]pyrazine-1-carbonyl)piperidin-4-yl)-1H-benzo[d]imidazol-2(3H)-one] |  | − |  | > 10000 | 
CN1CCn2c(-c3ccc(Cl)cc3F)nc(C(=O)NC3CCN(S(C)(=O)=O)CC3)c2C1 [Compound 213, 3-(4-chloro-2-fluorophenyl)-7-methyl-N-(1-(methylsulfonyl)piperidin-4-yl)-5,6,7,8-tetrahydroimidazo[1,5-a]pyrazine-1-carboxamide] |  |  |  | > 10000 | > 10000
CN1CCn2c(-c3ccc(Cl)cc3F)nc(C(=O)N3CCC4(CC3)C(=O)NCN4c3ccccc3)c2C1 [Compound 214, 8-(3-(4-chloro-2-fluorophenyl)-7-methyl-5,6,7,8-tetrahydroimidazo[1,5-a]pyrazine-1-carbonyl)-1-phenyl-1,3,8-triazaspiro[4.5]decan-4-one] | < 5.00 | − |  |  | 
